# Source: patent US20240050033A1, “PERFUSION DEVICE FOR EVALUATING BLOOD PARAMETERS” (SEDICIDODICI S.R.L., priority 2020, published 2024)
# What was measured:
# [1] = system: fibrin; assay: ex-vivo dynamic evaluation of fibrin formation in a whole-blood sample flowing through a perfusion chamber (fluorescence imaging); format: cell-based, human; details: mean value, blood of subjects under the therapy; 8-bit acquisition system
# Excerpt: (§1) The present invention firstly relates to a method for the dynamic “ex-vivo” evaluation of the coagulation process in a patient's blood sample, characterized in that such a method comprises the simultaneous determination on the same blood sample of both the time, quantity and speed of platelet aggregate formation and of fibrin formation time, quantity and speed.
# According to some embodiments, the method of the invention comprises the following steps: • a) providing a whole-blood sample taken from a subject and added with an anti-coagulant substance; • b) treating the blood sample of step a) with a solution consisting of fluorescent probes for marking platelets and fibrin capable of binding more or less specifically to platelets and fibrin and emitting fluorescent light on two different emission frequencies and of a recalcification solution of the blood sample. The two aforesaid solutions can also be combined in a single solution or single reagent; • c) introducing said recalcified blood sample into an analytical device having at least one perfusion chamber, in which at least one wall consists of a transparent material comprising a cytoadhesive substance, the blood sample being made to flow into the perfusion chamber in known and measurable flow conditions; • d) during the blood flow in the perfusion chamber, alternately acquiring at least two series of fluorescence images, so that at least one series of fluorescence images is acquired at an emission wavelength characteristic of the fluorescent probe for platelets and at least one other series of fluorescence images is acquired at another emission wavelength characteristic of the fluorescent probe for fibrin; • e) binarizing the pixels of the acquired images for the platelets and for the fibrin, so as to generate a first curve of area covered by illuminated pixels vs. time (t) for the formation of a platelet aggregate and a second curve of area covered by illuminated pixels vs. time for the fibrin formation; • f) generating a first curve of average fluorescence intensity vs. time for the formation of the platelet aggregate and a second curve of average fluorescence intensity vs. time for the fibrin formation; • in which the method comprises at least one of the following steps: • g) generating a first integrated density curve defined as the product of area and fluorescence intensity vs. time for the formation of the platelet aggregate and a second integrated density curve defined as the product of area and fluorescence intensity vs. time for the fibrin formation; • h) generating a curve of particle number vs. time, in which the number of particles is given by the number of platelet aggregates consisting of more than 2 illuminated pixels; • i) generating a curve of particle size vs. time, in which the particle size is given by the average size of the platelet aggregates consisting of more than 2 illuminated pixels; • j) generating values of maximum slope, defined as the relative maximum points of the first derivative function calculated for the curves of the parameter obtained in said at least one step e), f), g), h) and i); • k) generating values of maximum acceleration, defined as the relative maximum points of the second derivative function calculated for the curves of the parameter obtained in said at least one step e), f), g), h) and i); • l) generating values of F/P ratio, defined as the ratio of the AUCs of fibrin to the AUCs of the platelets of the parameter obtained in said at least one step e), f) and g); • the method further comprising the steps of: • m) generating a lag time value representing the fibrin formation time defined as the time corresponding to the first occurrence of five consecutive images in which the value of the measured area related to fibrin is >1% of the maximum peak value of the curve; • n) generating AUC (Area Under the Curve) values given by the area under the curve of each parameter obtained in steps e), f), g), h) and i). […]
# [2] = system: platelets; assay: ex-vivo dynamic evaluation of platelet aggregate formation in a whole-blood sample flowing through a perfusion chamber (fluorescence imaging); format: cell-based, human; details: mean value, blood of subjects under the therapy; 8-bit acquisition system
# Excerpt: as §1
# According to some embodiments, the method of the invention comprises the following steps: • a) providing a whole-blood sample taken from a subject and added with an anti-coagulant substance; • b) treating the blood sample of step a) with a solution consisting of fluorescent probes for marking platelets and fibrin capable of binding more or less specifically to platelets and fibrin and emitting fluorescent light on two different emission frequencies and of a recalcification solution of the blood sample. […]
structure (smiles),measurement,setting,value
"CC(=O)Oc1ccccc1C(=O)O [ASA, acetylsalicylic acid]",F/P Area (AUC Area ratio of fibrin to platelets),[1],1.0
same,F/P ID (AUC ID ratio of fibrin to platelets),[1],2.2
same,F/P MGV (AUC MGV ratio of fibrin to platelets),[1],1.2
same,Fibrin AUC Area (area under the curve of the area curve),[1],3.0 ×10^7
same,Fibrin AUC ID (area under the curve of the integrated density curve),[1],4.3 ×10^9
same,Fibrin AUC MGV (area under the curve of the fluorescence intensity curve),[1],2.0 ×10^4
same,Lag Time (fibrin formation time),[1],267.5 s
same,Platelets AUC Area (area under the curve of the area curve),[2],3.4 ×10^7
same,Platelets AUC ID (area under the curve of the integrated density curve),[2],3.0 ×10^9
same,Platelets AUC MGV (area under the curve of the fluorescence intensity curve),[2],2.0 ×10^4
